Values quoted from earlier work, collected in patent US8759069B2, “Contaminant control in Zymomonas fermentation using hop acids” (priority 2012, dated 2014).

Key:
[1] = tested on: Zymomonas mobilis strain ZM4; conditions: antibiotic concentrations that are safe to use with yeast
bacterial contamination = conditions: batch Zymomonas mobilis fermentation for ethanol production

Molecule	effect on Zymomonas mobilis strain ZM4 [1]	control of bacterial contamination (bacterial contamination)
CC1(C)S[C@@H]2[C@H](NC(=O)Cc3ccccc3)C(=O)N2[C@H]1C(=O)O [penicillin G]	safe for use with Zymomonas	successfully used to control bacterial contamination
[H]/N=C(/N)N[C@H]1[C@H](O)[C@@H](O)[C@H](O[C@@H]2O[C@@H](C)[C@](O)(C=O)[C@H]2O[C@@H]2O[C@@H](CO)[C@H](O)[C@@H](O)[C@@H]2NC)[C@@H](N/C(N)=N\[H])[C@@H]1O [streptomycin]	inhibitory to growth	–
polymixin	inhibitory to growth	–
